Columns and labels:
[1] = test system: patients with systolic or mixed systolic-diastolic hypertension; assay: Double-blind 12-week comparison of omapatrilat and enalapril: trough pulsatile hemodynamics (cuff pressure, arterial tonometry, Doppler flow); type: in vivo, human; settings: for Brachial pressures: Systolic pressure: trough (24 h after last dose), titrated to 80 mg omapatrilat or 40 mg enalapril; for Brachial pressures: Systolic pressure / PfPb Temporal overlap / Augmentation index / Brachial pressures: Diastolic pressure / Brachial pressures: Mean pressure / Brachial pressures: Pulse pressure / Carotid-femoral PWV / Carotid-radial PWV / Central hemodynamics: Heart rate / Central hemodynamics: Mean flow / Central hemodynamics: Peak flow / Central hemodynamics: Peripheral resistance (DSC) / Central hemodynamics: Pulse pressure / Central hemodynamics: Systolic pressure / Central stiffness parameters: Characteristic impedance (DSC) / Central stiffness parameters: First impedance modulus (DSC) / Central stiffness parameters: Proximal aortic compliance (CD) / End-systolic pressure / Forward wave, Pf / PbPf Amplitude ratio / Pressure at ti / Reflected wave arrival time, ti / Reflected wave, Pb / Systolic ejection period: mean ± SD; for PfPb Temporal overlap: % of systolic ejection period; for change in characteristic impedance / reduction in mean arterial pressure: change from baseline at 12 weeks; for change in characteristic impedance: only subjects with reduction in mean arterial pressure between 0 and −40 mmHg; for reduction in mean arterial pressure: only subjects with reduction in mean arterial pressure between 0 and −40 mmHg (68 omapatrilat, 59 enalapril); for changes in regional pulse wave velocities (carotid-femoral and carotid-radial) (FIG. 4): in vivo
Experimental: The following study was performed to compare treatment with the vasopeptidase inhibitor omapatrilat and the angiotensin converting enzyme inhibitor enalapril.
Study subjects. Male or female subjects age 18 years or older were eligible if they were in sinus rhythm and had systolic or mixed systolic-diastolic hypertension, defined as a seated systolic blood pressure ≧160 mmHg if newly diagnosed or ≧140 mmHg if currently treated and diastolic blood pressure ≦110 mmHG. Patients with known or suspected secondary forms of hypertension were excluded. Patients with a history of transient ischemic attacks within the prior 12 months or myocardial infarction or angina within the prior 6 months were excluded. All patients with heart failure, documented ejection fraction <45%, valvular heart disease or clinically significant peripheral vascular disease (bruit or diminished pulse in any of the brachial, radial, femoral or carotid arteries or blood pressure difference between upper extremities >6 mmHg) were excluded. Additional exclusion criteria included renal or renovascular disease, uncontrolled diabetes (glucose >200 mg/dl fasting or >220 mg/dL nonfasting), autoimmune disease, multiple drug allergies, bronchospastic disease requiring chronic medication. Laboratory exclusion criteria included hemoglobin <9 g/dl, platelet count <80,000/μl, white cell count <3000/μl, neutrophil count <1500/μl, serum potassium <3.5 or >5.2 mmol/L, alanine aminotransferase or aspartate aminotransferase greater than three times the upper limits of normal or serum creatinine >2.5 mg/dL. Failure to obtain a technically satisfactory baseline study, as determined by the core lab, was an exclusion criterion. If an initial baseline study had potentially remediable technical limitations, a repeat study was allowed within 2-9 days.
Treatment protocol: A single-blind placebo lead-in period of 1-2 weeks, during which the seated blood pressure was confirmed to be ≧160 mmHg and <200 mmHg and the diastolic pressure ≦110 mmHg, after withdrawl of antihypertensive medications, was followed by a double-blind active treatment period of 12 weeks. Baseline hemodynamic studies were performed at the end of the placebo lead-in period between 6:00 and 10:00 a.m. with the patient in a fasting state prior to taking morning medications and off all antihypertensive medications for at least 1 week. Patients were randomized within 2-9 days following an approved baseline study. Treatment was initiated with either 10 mg omapatrilat or 10 mg enalapril and was titrated at two and four weeks to doses of 40 then 80 mg omapatrilat or 20 then 40 mg enalapril. […] No concomitant antihypertensive medications were permitted during the study. A trough hemodynamic study, the primary endpoint of the trial was performed at the end of the active treatment period, 24 hours after the last prior dose of study medication, under identical conditions as the baseline study. Patients were then given one additional dose of study medication, which was followed 4 hours later by a final (peak) hemodynamic study. In order to focus on long-term effects of therapy, the primary endpoint of the study was prospectively defined as the trough change from baseline in pulsatile hemodynamics.
Hemodynamic data acquisition: Subjects were studied in the supine position after approximately 10 minutes of rest. Using a semi-automated computer-controlled device, auscultatory blood pressure was obtained 3-5 times at 2 minute intervals with a goal of obtaining 3 sequential readings that agreed to within 5 mmHg for systolic and diastolic. Arterial tonometry and ECG were obtained form the brachial, radial, femoral and carotid arteries using a custom transducer. Next, the patient was placed in the left lateral decubitus position and echocardiographic images of the left ventricular outflow tract were obtained from a parasternal long axis view. […]

[2] = test system: patients who had left ventricular dysfunction and class II-IV congestive heart failure; settings: cited from earlier work

SMILES | shortening of the systolic ejection period ([1]; 12 weeks, trough) | Brachial pressures: Systolic pressure ([1]; 12 weeks) [mmHg] | PfPb Temporal overlap ([1]; 12 weeks, trough) [%] | Augmentation index ([1]; 12 weeks, trough) [%] | Brachial pressures: Diastolic pressure ([1]; 12 weeks, trough) [mmHg] | Brachial pressures: Mean pressure ([1]; 12 weeks, trough) [mmHg] | Brachial pressures: Pulse pressure ([1]; 12 weeks, trough) [mmHg] | Carotid-femoral PWV ([1]; 12 weeks, trough) [m/s] | Carotid-radial PWV ([1]; 12 weeks, trough) [m/s] | Central hemodynamics: Heart rate ([1]; 12 weeks, trough) [min⁻¹] | Central hemodynamics: Mean flow ([1]; 12 weeks, trough) [mL/s] | Central hemodynamics: Peak flow ([1]; 12 weeks, trough) [mL/s] | Central hemodynamics: Peripheral resistance (DSC) ([1]; 12 weeks, trough) [dyne × sec / cm^5] | Central hemodynamics: Pulse pressure ([1]; 12 weeks, trough) [mmHg] | Central hemodynamics: Systolic pressure ([1]; 12 weeks, trough) [mmHg] | Central stiffness parameters: Characteristic impedance (DSC) ([1]; 12 weeks, trough) [dyne × sec / cm^5] | Central stiffness parameters: First impedance modulus (DSC) ([1]; 12 weeks, trough) [dyne × sec / cm^5] | Central stiffness parameters: Proximal aortic compliance (CD) ([1]; 12 weeks, trough) | End-systolic pressure ([1]; 12 weeks, trough) [mmHg] | Forward wave, Pf ([1]; 12 weeks, trough) [mmHg] | further results
O=C(N[C@H]1CCS[C@H]2CCC[C@@H](C(=O)O)N2C1=O)[C@H](S)Cc1ccccc1 (relative stereo) [Omapatrilat, [4S-[4α(R*),7α,10aβ]]-octahydro-4-[(2-mercapto-1-oxo-3-phenylpropyl)amino]-5-oxo-7H-pyrido[2,1-b][1,3]thiazepine-7-carboxylic acid] | not seen | 147 ± 20 | 64 ± 12 | 19 ± 13 | 76 ± 11 | 105 ± 13 | 71 ± 18 | 11.4 ± 3.1 | 10.1 ± 1.4 | 64 ± 9 | 73 ± 16 | 312 ± 68 | 1986 ± 449 | 71 ± 22 | 147 ± 24 | 208 ± 70 | 323 ± 119 | 0.53 ± 0.26^† 10^−5 cm^4 / dyne | 114 ± 16 | 54 ± 16 | PbPf Amplitude ratio ([1]; 12 weeks, trough): 47 ± 7%; Pressure at ti ([1]; 12 weeks, trough): 132 ± 20 mmHg; Reflected wave arrival time, ti ([1]; 12 weeks, trough): 116 ± 36 ms; Reflected wave, Pb ([1]; 12 weeks, trough): 25 ± 7 mmHg; Systolic ejection period ([1]; 12 weeks, trough): 320 ± 26 ms; peripheral resistance ([1]; 12 weeks, trough, versus enalapril): reduced more; amplitude of the forward pressure wave ([1]; 12 weeks, unchanged peak flow): markedly reduced; change in characteristic impedance adjusted for baseline mean arterial pressure and change in mean arterial pressure ([1]; 12 weeks, versus enalapril, P<0.05): remained significant; change in characteristic impedance [1]: −37±58 dyne×sec/cm^5; reduction in mean arterial pressure [1]: −13.8±7.4 mmHg; changes in central pulse pressure (FIG. 2) ([1]; compared to enalapril): greater reduction in the central pulse pressure compared to enalapril; change in peripheral (brachial) systolic, diastolic, and pulse pressure (FIG. 1) ([1]; compared to enalapril, p<0.05): greater reductions in all measurements; changes in regional pulse wave velocities (carotid-femoral and carotid-radial) (FIG. 4) [1]: reduced regional pulse wave velocity; arrival time of the reflected wave (FIG. 4) ([1]; p<0.05): delayed reflected wave arrival time; characteristic impedance, a direct measure of aortic stiffness (FIG. 3) ([1]; without a change in aortic flow): significantly reduced; carotid-femoral pulse wave velocity [2]: favorable trend toward reduction
CCOC(=O)[C@H](CCc1ccccc1)N[C@@H](C)C(=O)N1CCC[C@H]1C(=O)O [Enalapril, reference compound] | shortening of the systolic ejection period | 155 ± 20 | 66 ± 8 | 21 ± 10 | 81 ± 10 | 111 ± 12 | 74 ± 20 | 11.9 ± 3.7 | 10.6 ± 1.8 | 63 ± 8 | 73 ± 16 | 314 ± 70 | 2122 ± 462 | 75 ± 23 | 156 ± 24 | 231 ± 94 | 352 ± 163 | 0.49 ± 0.28 10^−5 cm^4 / dyne | 120 ± 14 | 58 ± 17 | PbPf Amplitude ratio ([1]; 12 weeks, trough): 46 ± 8%; Pressure at ti ([1]; 12 weeks, trough): 139 ± 17 mmHg; Reflected wave arrival time, ti ([1]; 12 weeks, trough): 108 ± 25 ms; Reflected wave, Pb ([1]; 12 weeks, trough): 27 ± 8 mmHg; Systolic ejection period ([1]; 12 weeks, trough): 319 ± 27 ms; change in characteristic impedance [1]: −4±67 dyne×sec/cm^5; reduction in mean arterial pressure [1]: −12.0±8.1 mmHg; changes in regional pulse wave velocities (carotid-femoral and carotid-radial) (FIG. 4) [1]: reduced regional pulse wave velocity
